Measurements from patent publication US9187487B2, “Azaindole derivatives as tyrosine kinase inhibitors” (PRINCIPIA BIOPHARMA, INC., priority 2011, dated 2015).

These compounds were tested against recombinant JAK3 (catalytic domain, aa 781-1124) (Homo sapiens (Human), UniProt P52333) (assay: JAK3 Caliper Peptide Phosphorylation Assay). Settings: fluorescently labeled Srctide substrate 1 uM; ATP at 1×Km (2 uM); 2 hours at 25° C.
Type: biochemical
Experimental: JAK3 Caliper Peptide Phosphorylation Assay
Phosphorylation of the appropriate peptide substrate (fluorescently labeled Srctide) by recombinant JAK3 (catalytic domain, aa 781-1124) was measured in the presence and absence of different concentrations of test compounds. Test compound, enzyme, fluorescently labeled substrate, and cofactors (ATP and Mg^2+) were combined in a well of a microtiter plate and incubated for 2 hours at 25° C. The composition of the reaction buffer was 100 mM HEPES pH 7.5, 5 mM MgCl2, 0.01% Triton-X 100, 0.1% Bovine Serum Albumin, and 1% DMSO. Enzyme concentration in the final reaction mixture was 0.5 nM while peptide substrate was at 1 uM. ATP was used at 1×Km concentration corresponding to 2 uM. Serial dilutions (3-fold steps) of compounds were prepared in DMSO. At the end of the incubation, the reaction was stopped by the addition of 20 mM EDTA. Substrate and product (i.e. phosphorylated substrate) were separated electrophoretically and both were quantified by fluorescence intensity using the microfluidics-based LabChip 3000 Drug Discovery System from Caliper Life Sciences. Conversion for each well was calculated and plotted as function of test compound concentration. IC50 value was determined by fitting the data to a 4-parameter logistic model by non-linear regression (XLfit model 205). In every assay, Staurosporine was tested in the same manner as reference compound. Selectivity for JAK3 was determined using commercially available kinase cross-screening services (DiscoveRx, San Diego, Calif.).

Chain of recombinant JAK3 (catalytic domain, aa 781-1124) (P52333 781-1124): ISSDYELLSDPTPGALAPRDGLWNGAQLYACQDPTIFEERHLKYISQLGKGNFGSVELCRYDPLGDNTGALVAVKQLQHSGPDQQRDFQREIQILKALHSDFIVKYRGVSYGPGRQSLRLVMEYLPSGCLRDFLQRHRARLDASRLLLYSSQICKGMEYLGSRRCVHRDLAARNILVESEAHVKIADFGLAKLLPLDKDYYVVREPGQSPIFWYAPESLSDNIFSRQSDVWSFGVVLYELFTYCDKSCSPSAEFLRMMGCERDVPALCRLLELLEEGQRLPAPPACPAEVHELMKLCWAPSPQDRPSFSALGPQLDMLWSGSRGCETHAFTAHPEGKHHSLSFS

`CC(C)NC(=O)c1c[nH]c2ncc(Nc3ccc(C=C(C#N)C(=O)N(C)C)cc3)nc12` [compound 50, 2-((4-(2-cyano-3-(dimethylamino)-3-oxoprop-1-en-1-yl)phenyl)amino)-N-isopropyl-5H-pyrrolo[2,3-b]pyrazine-7-carboxamide] and `CN(C)C(=O)C(C#N)=Cc1ccc(Nc2cnc3[nH]cc(C(=O)NC(C)(C)C)c3n2)cc1` [compound 71, N-(tert-butyl)-2-((4-(2-cyano-3-(dimethylamino)-3-oxoprop-1-en-1-yl)phenyl)amino)-5H-pyrrolo[2,3-b]pyrazine-7-carboxamide] are the same in IC50: 0.2 nM for the first, 0.2 nM for the second.

Compared with `CC(C)NC(=O)c1c[nH]c2ncc(Oc3cccc(C=C(C#N)C(=O)N(C)C)c3)nc12` [compound 51, 2-(3-(2-cyano-3-(dimethylamino)-3-oxoprop-1-en-1-yl)phenoxy)-N-isopropyl-5H-pyrrolo[2,3-b]pyrazine-7-carboxamide], `CN(C)C(=O)C(C#N)=Cc1cccc(Oc2cnc3[nH]cc(C(=O)C(C)(C)C)c3n2)c1` [compound 100, 2-cyano-N,N-dimethyl-3-(3-((7-pivaloyl-5H-pyrrolo[2,3-b]pyrazin-2-yl)oxy)phenyl)acrylamide] is higher in IC50: 1150 nM for the first, > 5000 nM for the second.

Compared with `CN(C)C(=O)C(C#N)=Cc1ccc(Nc2cnc3[nH]cc(C(=O)C(C)(C)C)c3n2)cc1` [compound 57, 2-cyano-N,N-dimethyl-3-(4-((7-pivaloyl-5H-pyrrolo[2,3-b]pyrazin-2-yl)amino)phenyl)-acrylamide], `CC(C)(C)C(=O)c1c[nH]c2ncc(Nc3ccc(C=C(C#N)C(N)=O)cc3)nc12` [compound 60, 2-cyano-3-(4-((7-pivaloyl-5H-pyrrolo[2,3-b]-pyrazin-2-yl)amino)phenyl)acrylamide] is 2.5-fold lower in IC50: 1 nM for the first, 0.4 nM for the second. The second is the more potent here.

Compared with `CC(C)(C)C(=O)c1c[nH]c2ncc(Nc3ccc(C=C(C#N)C(=O)N4CCC4)cc3)nc12` [compound 62, 2-(azetidine-1-carbonyl)-3-(4-((7-pivaloyl-5H-pyrrolo[2,3-b]pyrazin-2-yl)amino)phenyl)acrylonitrile], `CC(C)(C)C(=O)c1c[nH]c2ncc(Nc3ccc(C=C(C#N)C(=O)N4CCCCC4)cc3)nc12` [compound 76, 2-(piperidine-1-carbonyl)-3-(4-((7-pivaloyl-5H-pyrrolo[2,3-b]pyrazin-2-yl)amino)phenyl)-acrylonitrile] is 2.5-fold higher in IC50: 0.4 nM for the first, 1 nM for the second. The first is the more potent here.

Going from `CN1CCN(C(=O)C(C#N)=Cc2ccc(Nc3cnc4[nH]cc(C(=O)C(C)(C)C)c4n3)cc2)CC1` [compound 64, 2-(4-methylpiperazine-1-carbonyl)-3-(4-(7-pivaloyl-5H-pyrrolo[2,3-b]pyrazin-2-ylamino)phenyl)acrylonitrile] to `CCNC(=O)C(C#N)=Cc1ccc(Nc2cnc3[nH]cc(C(=O)C(C)(C)C)c3n2)cc1` [compound 77, 2-cyano-3-(4-((7-pivaloyl-5H-pyrrolo[2,3-b]pyrazin-2-yl)amino)phenyl)-N-ethylacrylamide], the IC50 rises from 0.2 nM to 1 nM (5-fold). The first is the more potent here.

`CN(C)C(=O)C(C#N)=Cc1ccc(Nc2cnc3[nH]cc(C(=O)C(C)(C)C)c3n2)cc1F` [compound 66, 2-cyano-3-(2-fluoro-4-((7-pivaloyl-5H-pyrrolo[2,3-b]pyrazin-2-yl)amino)phenyl)-N,N-dimethylacrylamide] and `CN(C)C(=O)C(C#N)=Cc1ccc(Nc2cnc3[nH]cc(C(=O)C(C)(C)C)c3n2)cc1Cl` [compound 68, 3-(2-chloro-4-(7-pivaloyl-5H-pyrrolo-[2,3-b]pyrazin-2-ylamino)phenyl)-2-cyano-N,N-dimethylacrylamide] are within 1.5-fold of each other in IC50: 0.7 nM for the first, 1 nM for the second.

First: CN(C)C(=O)C(C#N)=Cc1ccc(Nc2cnc3[nH]cc(C(=O)C(C)(C)C)c3n2)c(F)c1 [compound 69, 2-cyano-3-(3-fluoro-4-((7-pivaloyl-5H-pyrrolo[2,3-b]pyrazin-2-yl)amino)phenyl)-N,N-dimethylacrylamide]
Second: CN(C)C(=O)C(C#N)=Cc1ccc(Nc2cnc3[nH]cc(C(=O)C(C)(C)C)c3n2)s1 [compound 73, 2-cyano-N,N-dimethyl-3-(5-((7-pivaloyl-5H-pyrrolo[2,3-b]pyrazin-2-yl)amino)thiophen-2-yl)acrylamide]
The IC50 of the first is 420-fold lower: 0.5 nM for the first, 210 nM for the second. The first is the more potent here.

Going from `CN(C)C(=O)C(C#N)=Cc1ccc(Nc2cnc3[nH]cc(C(=O)C(C)(C)C)c3n2)cn1` [compound 70, 2-cyano-N,N-dimethyl-3-(5-((7-pivaloyl-5H-pyrrolo[2,3-b]pyrazin-2-yl)amino)pyridin-2-yl)acrylamide] to `CN(C)C(=O)C(C#N)=Cc1ccc(-c2cnc3[nH]cc(C(=O)C(C)(C)C)c3n2)cc1` [compound 96, 2-cyano-N,N-dimethyl-3-(4-(7-pivaloyl-5H-pyrrolo[2,3-b]pyrazin-2-yl)phenyl)acrylamide], the IC50 rises from 0.9 nM to 680 nM (760-fold). The first is the more potent here.

Compared with `CCN1C(=O)SC(=Cc2ccc(Nc3cnc4[nH]cc(C(=O)C(C)(C)C)c4n3)cc2)C1=O` [compound 78, 3-ethyl-5-(4-((7-pivaloyl-5H-pyrrolo[2,3-b]pyrazin-2-yl)amino)benzylidene)thiazolidine-2,4-dione], `CC(C)(C)C(=O)c1c[nH]c2ncc(Nc3ccc(C=C4SC(=O)N(CCN)C4=O)cc3)nc12` [compound 89, 3-(2-aminoethyl)-5-(4-((7-pivaloyl-5H-pyrrolo[2,3-b]pyrazin-2-yl)amino)benzylidene)thiazolidine-2,4-dione] is 11-fold lower in IC50: 33.5 nM for the first, 3 nM for the second.

Going from `CCOC(=O)C(C#N)=Cc1ccc(Nc2cnc3[nH]cc(C(=O)C(C)(C)C)c3n2)cc1` [compound 79, ethyl 2-cyano-3-(4-((7-pivaloyl-5H-pyrrolo[2,3-b]-pyrazin-2-yl)amino)phenyl)acrylate] to `CC(C)(C)C(=O)c1c[nH]c2ncc(Nc3ccc(C=C(C#N)S(C)(=O)=O)cc3)nc12` [compound 81, 2-(methylsulfonyl)-3-(4-((7-pivaloyl-5H-pyrrolo[2,3-b]pyrazin-2-yl)amino)phenyl)-acrylonitrile], the IC50 falls from 100 nM to 0.6 nM (170-fold).

Compared with `CC(C)NC(=O)c1c[nH]c2ncc(Nc3ccc(C=C(C#N)C(=O)N4CCOCC4)cc3)nc12` [compound 80, N-(isopropyl)-2-((4-(2-cyano-3-morpholino-3-oxoprop-1-en-1-yl)phenyl)amino)-5H-pyrrolo[2,3-b]pyrazine-7-carboxamide], `CC(C)NC(=O)c1c[nH]c2ncc(Nc3ccc(C=C(C#N)C(=O)N4CCNCC4)cc3)nc12` [compound 83, 2-((4-(2-cyano-3-oxo-3-(piperazin-1-yl)prop-1-en-1-yl)phenyl)amino)-N-isopropyl-5H-pyrrolo[2,3-b]pyrazine-7-carboxamide] is 3.5-fold lower in IC50: 0.7 nM for the first, 0.2 nM for the second.

First: CC(C)(C)C(=O)c1c[nH]c2ncc(Nc3ccc(C=C(C#N)c4nccs4)cc3)nc12 [compound 82, 3-(4-((7-pivaloyl-5H-pyrrolo[2,3-b]pyrazin-2-yl)amino)phenyl)-2-(thiazol-2-yl)acrylonitrile]
Second: CN(C(=O)C(C#N)=Cc1ccc(Nc2cnc3[nH]cc(C(=O)C(C)(C)C)c3n2)cc1)c1ccccc1 [compound 85, 2-cyano-N-methyl-N-phenyl-3-(4-((7-pivaloyl-5H-pyrrolo[2,3-b]pyrazin-2-yl)amino)phenyl)-acrylamide]
The IC50 of the first is 7-fold higher: 38.3 nM for the first, 5.5 nM for the second.

First: CN(C)CCN1C(=O)SC(=Cc2ccc(Nc3cnc4[nH]cc(C(=O)C(C)(C)C)c4n3)cc2)C1=O [compound 88, 3-(2-(dimethylamino)ethyl)-5-(4-((7-pivaloyl-5H-pyrrolo[2,3-b]pyrazin-2-yl)amino)-benzylidene)thiazolidine-2,4-dione]
Second: CN(C)C(=O)C(C#N)=Cc1cccc(-c2cnc3[nH]cc(C(=O)C(C)(C)C)c3n2)c1 [compound 97, 2-cyano-N,N-dimethyl-3-(3-(7-pivaloyl-5H-pyrrolo[2,3-b]pyrazin-2-yl)phenyl)acrylamide]
The IC50 of the first is 35-fold lower: 3 nM for the first, 104 nM for the second. The first is the more potent here.

Work on `CC(C)(C)C(=O)c1c[nH]c2ncc(-c3cccc(NC(=O)C(C#N)=CC4CC4)c3)nc12` [compound 102, 2-cyano-3-cyclopropyl-N-(3-(7-pivaloyl-5H-pyrrolo[2,3-b]pyrazin-2-yl)phenyl)acrylamide] yielded an IC50 of 345 nM.
